Test systems include DU-145; PC-3; A498; IGROV-1; NCI-H226; NCI-H23; OVCAR-3; TK-10; OVCAR-5; SW-620; HCT-116; SNB-19; A549; SF-295; MDA-N; UACC-62; MDA-MB-435; HCT-15; U-251; SK-MEL-28.
Assay in all cases: growth of human tumour cells (NCI), 48 h

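Compound exposure: 48 hours, 5 concentrations, 96-well plates. GI50: concentration for 50% inhibition of growth.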 Calls of active or inactive are those of the source. No stated cut-off is given here; in the data, active = GI50 up to about 1.1 µM and inactive = higher.

Take `CCCCC/C=C1\CC(CO)(COC(=O)CC(C(C)C)C(C)C)OC1=O` (stereo not given): the GI50 is 15.6 µM (inactive) in the experiment on DU-145; 10.5 µM (inactive) with PC-3; 15.8 µM (inactive) with A498; 17.4 µM (inactive) in the experiment on IGROV-1; 13.7 µM (inactive) in the experiment on NCI-H226; 17.5 µM (inactive) in the experiment on NCI-H23. Also, the GI50 in the experiment on OVCAR-3 was 17.5 µM (inactive); in the experiment on TK-10 it was 14.2 µM (inactive); in the experiment on OVCAR-5, 12.7 µM (inactive); with SW-620, 29.3 µM (inactive); in the experiment on HCT-116, 18.7 µM (inactive); with SNB-19 it was 15 µM (inactive). In addition, the GI50 with A549 is 8.89 µM (inactive); in the experiment with SF-295, 5.52 µM (inactive); with MDA-N, 8.15 µM (inactive); in the experiment on UACC-62 it was 19.4 µM (inactive); in the experiment on MDA-MB-435, 8.59 µM (inactive); in the experiment on HCT-15, 19.9 µM. The GI50 is 14.5 µM (inactive) in the experiment with U-251 and 16.1 µM (inactive) in the experiment with SK-MEL-28.

As for `NS(=O)(=O)OCCCCCCCOS(N)(=O)=O`, the GI50 in the experiment on DU-145 is 124 µM (inactive); in the experiment on PC-3, 249 µM (inactive); with A498, 377 µM (inactive); in the experiment on IGROV-1, 376 µM (inactive); in the experiment on NCI-H226, 292 µM (inactive); in the experiment with NCI-H23, 245 µM (inactive). Also, the GI50 in the experiment on OVCAR-3 was 361 µM (inactive); with TK-10 it was 649 µM (inactive); with OVCAR-5, 408 µM (inactive); in the experiment with SW-620, 334 µM (inactive); with HCT-116, 309 µM (inactive); in the experiment with SNB-19, 275 µM (inactive). Further, the GI50 in the experiment on A549 was 109 µM (inactive); in the experiment with SF-295 it was > 92.9 µM (inactive); in the experiment on MDA-N, 392 µM (inactive); in the experiment on UACC-62 it was 61.4 µM (inactive); in the experiment on MDA-MB-435, 410 µM (inactive); with HCT-15, 349 µM. Moreover, the GI50 was 198 µM (inactive) in the experiment on U-251 and 535 µM (inactive) with SK-MEL-28.

Regarding `CN(CCNC(=O)c1cn(C)c2c1ccc1cc(Cl)ccc12)CCNC(=O)c1cn(C)c2c1ccc1cc(Cl)ccc12`, the GI50 in the experiment on DU-145 was 1.73 µM (inactive); with PC-3, 5.5 µM (inactive); in the experiment with A498, 3.71 µM (inactive); in the experiment with IGROV-1, 3.57 µM (inactive); with NCI-H226, 25.9 µM (inactive); in the experiment on NCI-H23, 2.01 µM (inactive). The GI50 in the experiment with OVCAR-3 was 2.4 µM (inactive); with TK-10, 7.13 µM (inactive); in the experiment with OVCAR-5 it was 1.97 µM (inactive); in the experiment with SW-620 it was 5.28 µM (inactive); in the experiment with HCT-116, 1.71 µM (inactive); in the experiment with SNB-19 it was 1.83 µM (inactive). The GI50 in the experiment on A549 was 1.92 µM (inactive); with SF-295, 1.86 µM (inactive); with MDA-N, 1.95 µM (inactive); with UACC-62 it was 5.97 µM (inactive); in the experiment on MDA-MB-435, 1.44 µM (inactive); in the experiment on HCT-15, 1.78 µM. In addition, the GI50 is 7.59 µM (inactive) in the experiment with U-251 and 5.85 µM (inactive) with SK-MEL-28.

For `COC(=O)c1c(CC(Cc2ccc3c(c2)CCCC3)C(=O)O)ccc2c1CCCC2` (stereo not given), the GI50 was 39.6 µM (inactive) in the experiment with DU-145; 36.4 µM (inactive) in the experiment on PC-3; 25 µM (inactive) in the experiment with A498; 36.8 µM (inactive) in the experiment with IGROV-1; 39.9 µM (inactive) with NCI-H226; 60.4 µM (inactive) in the experiment with NCI-H23. Moreover, the GI50 in the experiment on OVCAR-3 was 18.8 µM (inactive); with TK-10, 36.1 µM (inactive); in the experiment with OVCAR-5, 43.8 µM (inactive); in the experiment on SW-620, 40.7 µM (inactive); in the experiment with HCT-116, 17.9 µM (inactive); in the experiment with SNB-19 it was 40.7 µM (inactive). For the same compound, the GI50 was 34.1 µM (inactive) with A549; 32.6 µM (inactive) in the experiment with SF-295; 43.2 µM (inactive) in the experiment on MDA-N; 22.4 µM (inactive) in the experiment on UACC-62; 34.2 µM (inactive) with MDA-MB-435; 18 µM with HCT-15. Further, the GI50 was 37.2 µM (inactive) in the experiment with U-251 and 34.7 µM (inactive) in the experiment with SK-MEL-28.

Consider `O=C1c2c(O)cccc2C(C(=O)CCCC(=O)C2c3cccc(O)c3C(=O)c3c(O)cccc32)c2cccc(O)c21`, for which the GI50 with DU-145 is 0.519 µM (active); with PC-3 it was 0.0787 µM (active); in the experiment with A498, 0.957 µM (active); in the experiment on IGROV-1, 0.415 µM (active); in the experiment with NCI-H226, 0.456 µM (active); in the experiment on NCI-H23, 0.27 µM (active). Further, the GI50 was 0.158 µM (active) in the experiment on OVCAR-3; 0.547 µM (active) with TK-10; 0.469 µM (active) in the experiment on OVCAR-5; 0.244 µM (active) in the experiment with SW-620; 0.22 µM (active) in the experiment with HCT-116; 0.29 µM (active) in the experiment with SNB-19. Besides, the GI50 in the experiment with A549 is 0.393 µM (active); in the experiment with SF-295, 0.243 µM (active); in the experiment with MDA-N, 0.442 µM (active); in the experiment with UACC-62 it was 0.327 µM (active); in the experiment on MDA-MB-435, 0.746 µM (active); with HCT-15, 0.259 µM. In addition, the values for the GI50 with U-251 and with SK-MEL-28 were 0.212 µM (active) and 0.538 µM (active), respectively.

With `C[C@H](NC(=O)c1ccc(CNC(=O)/C=C/c2cccc(Oc3ccccc3)c2)cc1)c1ccccc1`, the GI50 was > 100 µM (inactive) with DU-145; > 100 µM (inactive) in the experiment on PC-3; 73.6 µM (inactive) in the experiment with A498; > 100 µM (inactive) in the experiment with IGROV-1; 32.7 µM (inactive) in the experiment with NCI-H226; > 100 µM (inactive) in the experiment with NCI-H23. Further, the GI50 in the experiment with OVCAR-3 is > 100 µM (inactive); in the experiment with TK-10, 61.4 µM (inactive); with OVCAR-5, > 100 µM (inactive); in the experiment on SW-620, > 100 µM (inactive); with HCT-116, > 100 µM (inactive); in the experiment on SNB-19 it was 37.8 µM (inactive). The GI50 with A549 is 55.8 µM (inactive); with SF-295, 40.8 µM (inactive); in the experiment on MDA-N it was > 100 µM (inactive); in the experiment on UACC-62 it was > 100 µM (inactive); in the experiment with MDA-MB-435, > 100 µM (inactive); in the experiment with HCT-15 it was above 100 µM. Besides, the results for the GI50 in the experiment with U-251 and with SK-MEL-28 were 49.2 µM (inactive) and 80.9 µM (inactive), respectively.

For `CCOC(=O)Oc1cc2c(c(OC)c1OC)-c1ccc(SC)c(=O)cc1C(NC(=O)C(F)(F)F)CC2` (stereo not given), the GI50 in the experiment with DU-145 is 0.00258 µM (active); in the experiment with PC-3 it was 0.026 µM (active); in the experiment with A498, 0.00133 µM (active); with IGROV-1, 0.0022 µM (active); in the experiment with NCI-H226, 0.00106 µM (active); in the experiment on NCI-H23, 0.0209 µM (active). Besides, the GI50 was < 0.001 µM (active) in the experiment on OVCAR-3; > 10 µM (inactive) in the experiment with TK-10; 0.1 µM (active) in the experiment on OVCAR-5; < 0.001 µM (active) in the experiment on SW-620; < 0.001 µM (active) with HCT-116; 0.00316 µM (active) in the experiment with SNB-19. In addition, the GI50 in the experiment with A549 was 0.00555 µM (active); with SF-295 it was < 0.001 µM (active); in the experiment on MDA-N, < 0.001 µM (active); in the experiment with UACC-62 it was 0.00108 µM (active); with MDA-MB-435 it was < 0.001 µM (active); in the experiment on HCT-15, 0.00221 µM. The GI50 in the experiment with U-251 was 0.00145 µM (active); in the experiment with SK-MEL-28, < 0.001 µM (active).
